Data set [1] has as its target T1, purified alcohol oxidase from P. pastoris (Komagataella phaffii, UniProt P04842).
T1 sequence (P04842 2-663 limits assumed): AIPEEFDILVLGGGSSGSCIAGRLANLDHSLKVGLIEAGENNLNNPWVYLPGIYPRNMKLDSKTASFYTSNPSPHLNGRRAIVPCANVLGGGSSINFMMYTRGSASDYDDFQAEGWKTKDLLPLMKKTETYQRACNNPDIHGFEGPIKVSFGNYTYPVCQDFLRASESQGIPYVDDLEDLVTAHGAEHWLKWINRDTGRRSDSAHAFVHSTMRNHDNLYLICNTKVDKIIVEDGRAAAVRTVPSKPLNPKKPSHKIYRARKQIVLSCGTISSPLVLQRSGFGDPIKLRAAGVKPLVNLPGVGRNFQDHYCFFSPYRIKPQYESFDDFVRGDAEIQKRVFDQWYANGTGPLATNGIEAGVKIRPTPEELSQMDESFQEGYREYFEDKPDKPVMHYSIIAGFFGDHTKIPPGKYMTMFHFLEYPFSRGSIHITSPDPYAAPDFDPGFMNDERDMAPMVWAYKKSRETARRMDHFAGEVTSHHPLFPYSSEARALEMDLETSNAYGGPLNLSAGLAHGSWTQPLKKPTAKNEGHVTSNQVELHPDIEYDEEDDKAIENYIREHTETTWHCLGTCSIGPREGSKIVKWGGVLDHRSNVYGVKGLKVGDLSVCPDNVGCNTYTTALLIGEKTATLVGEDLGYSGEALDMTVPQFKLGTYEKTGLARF
The following applies: Patel et al; cited from earlier work.

Another data set concerns the target T2, alcohol oxidase (Komagataella phaffii, UniProt P04842).
T2 construct: purchased Provesta Corp. (Bartlesville, Oklahoma)
T2 sequence (P04842 2-663 limits assumed): T1 sequence (P04842 2-663 limits assumed)
In words: Conversion of benzyl alcohol to benzaldehyde by purified alcohol oxidase in aqueous two phase systems. It counts as biochemical, Pichia pastoris. The following applies: for Reaction Rate: benzyl alcohol 20 g/L. As for the experimental part: To determine reaction rates, benzyl alcohol was presolubilized in the solvent of interest to a final concentration of 20 g/L unless otherwise specified. Alcohol oxidase and catalase were premixed in an activity ratio of 1300 U catalase activity per unit of alcohol oxidase activity. In some cases the enzyme mixture was diluted with 0.1 M phosphate buffer (pH 8) to determine the effect of changes in phase volume ratio. The enzyme mixture was then added to the solvent-substrate reaction fluid in a 125 mL serum vial. Reaction conditions were otherwise identical to those described above.
The purified alcohol oxidase was obtained from Provesta Corp. (Bartlesville, Oklahoma) and consisted of a concentrated (35 g/L) protein solution with a specific activity of 14.7 International Enzyme Units (IEU) per milligram of protein. One IEU is defined as the amount of enzyme which will oxidize one micomole of ethanol to acetaldehyde per minute at pH 7.5 at 25° C. The enzyme was stored frozen (-20° C.) until used. Beef liver catalase was obtained from Boehringer Mannheim Inc. as a 20 g/L suspension with a specific activity of 65000 U/mg. It was stored at 4° C.
Benzyl alcohol to benzaldehyde conversion was described in part a) except the percent aqueous phase was varied between 1and 5%.

Data set [2] deals with whole cells of Pichia pastoris. Description: Conversion of alcohols by whole cells of Pichia pastoris in aqueous reaction media. It is filed as cell-based. Conditions: for Oxidation by methanol-induced alcohol oxidase from P. pastoris: aqueous reaction media. The procedure: Pichia pastoris was obtained from the American Type Culture Collection, Rockville, Maryland, U.S.A. (ATCC 28485). The growth and maintenance medium consisted of: KH2 PO4 2.6 g/L; K2 HPO4 0.3 g/L; (NH4)2 SO4 1.5 g/L; MgSO4.7 ·H2 O 0.3 g/L; Difco yeast extract 1.9 g/L; FeSO4 ·7H2 O 1 mg/L; CuSO4 ·5H2 O 5 μg/L; H3 BO3 10 μg/L; MnSO4 ·H2 O 10 μg/L; ZnSO4 ·7H2 O 70 μg/L: NaMoO4 ·2H2 O 10 μg/L. After the medium was autoclaved and cooled, methanol (10 g/L) and a vitamin solution (J.P. van der Walt and A.E. van Kerken, Antonie van Leeuwenkoek 27: 81-90, 1961) (2 mL) were added. Growth of the organism was carried out in Erlenmeyer shake flasks at 30° C. on a reciprocal shaker (200 rpm). After 72 hrs growth, biomass was harvested by centrifugation (4000 g, 5 min) washed with 0.1 M phosphate buffer pH 8, and resuspended in 0.5 M Tris buffer (pH 8).
Unless otherwise stated, the reaction conditions for whole cell systems in aqueous solution (0.5M Tris pH 8) were as follows: 25 ml of the biomass suspension was dispensed into 125 mL serum vials and the substrate was added to the concentration listed in Table 1. The final biomass concentration was 5 g/L. The vials were flushed with oxygen, capped and sealed to prevent loss of reactants or products from the system. The vials were pressurized with oxygen (15 psig) and shaken (200 rpm) at 30° C. during the reaction. A sample was withdrawn following the reaction time listed in Table 1 and centrifuged (15000 g, 1 min) to remove biomass and stop the reaction. The supernatant liquid was diluted 1:1 with internal standard for gas chromatography. In some cases, a portion of the sample was extracted with 9 volumes of warm (50° C.) water, to solubilize insoluble separated product, mixed thoroughly by vortexing, and then diluted 1:1 with internal standard before assaying by gas chromatography. In all experiments the vials were regularly repressurized with oxygen throughout the reaction period.
The substrates and products were assayed using a Hewlett-Packard 5790A gas chromatograph equipped with a Chromasorb 101 packed column. The carrier gas was helium and the column was run isothermally at 220° C. For aqueous reaction systems the internal standard was isopropyl alcohol (20 g/L). In non-aqueous systems octanol (20 g/L) was dissolved in the appropriate solvent and used as internal standard.

The subject of data set [3] is alkane-induced alcohol oxidase. Conditions: Kemp et al; cited from earlier work.
The format of data set [4] is physicochemical. The procedure:
The partitioning of benzyl alcohol and benzaldehyde between 0.1 M phosphate buffer and each solvent used were measured as follows: benzyl alcohol (10 g/L) and benzaldehyde (10 g/L) were dissolved in each of the solvents of interest. Ten millilitres of each solvent were then dispensed into a test tube containing 10 ml of 0.1 M phosphate buffer (pH 8). The tubes were capped, vortexed, and the mixture was allowed to equilibrate for 1 hr at 30° C. Both phases were then assayed for benzaldehyde and benzyl alcohol as described above. Partition coefficients were expressed as the ratio of the concentration of the solute of interest in the aqueous phase: the concentration of the same compound in the organic phase.
The partition coefficients were determined as in Example 2 but expressed as solute (g/L) in organic phase/solute (g/L) in aqueous phase (see Table 4).

A further data set relates to P. pastoris. In words: Bio-oxidation of hexanol to hexanal by P. pastoris in two-phase aqueous (5% v/v)/organic systems. It is filed as cell-based, Pichia pastoris. The following applies: for Hexanal produced: aqueous phase 5% v/v, 24 h incubation.
The test system of data set [5] is whole cells of Pichia pastoris. In words: Conversion of higher alcohols by whole cells of Pichia pastoris in two-phase (hexane/water) reaction system. It counts as cell-based. The following applies: alcohol 30 g/L. As for the experimental part:
Growth of the organism was carried out in Erlenmeyer shake flasks at 30° C. on a reciprocal shaker (200 rpm). After 72 hrs growth, biomass was harvested by centrifugation (4000 g, 5 min) washed with 0.1 M phosphate buffer pH 8, and resuspended in 0.5 M Tris buffer (pH 8).
The method of conversion of higher alcohols using whole cells in a two-phase reaction system was as follows. One gram of Pichia pastoris cell paste (pellet resulting from a 10 minute, 9154 g centrifugation) was placed in a 125 ml serum vial and dispersed in 2 ml of H2 O (aqueous phase).
Then 48 ml of hexane containing the substrate (concentration in Table 1) were added to form the organic phase. The reaction was conducted as described above. Samples from the organic phase were withdrawn at the indicated times (Table 1) and the concentration of aldehyde product determined by gas chromatography.
The carrier gas was helium and the column was run isothermally at 220° C. For aqueous reaction systems the internal standard was isopropyl alcohol (20 g/L). In non-aqueous systems octanol (20 g/L) was dissolved in the appropriate solvent and used as internal standard.

Consider `CC(N)CO` (centres unmarked) [2-amino-1-propanol], for which, in data set [1], the “Oxidation by purified alcohol oxidase” value is “unable to oxidize”.

Take `NCCO` [2-amino-ethanol]: in data set [1], the “Oxidation by purified alcohol oxidase” value is recorded as “unable to oxidize”.

In the case of `OCc1ccccc1` [benzyl alcohol], the “Cumulative benzaldehyde production Concn.” value on alcohol oxidase (enzyme 1.0 U/mL, time 2.0 h) was 2.1 g/L; on alcohol oxidase (enzyme 1.0 U/mL, time 4.0 h) it was 2.8 g/L; on alcohol oxidase (enzyme 1.0 U/mL, time 8.0 h), 17 g/L; at alcohol oxidase (enzyme 2.5 U/mL, time 2.0 h) it was 5.1 g/L; on alcohol oxidase (enzyme 2.5 U/mL, time 4.0 h), 6.3 g/L; at alcohol oxidase (enzyme 5.0 U/mL, time 2.0 h) it was 9.9 g/L. The “Cumulative benzaldehyde production Concn.” value at alcohol oxidase (enzyme 5.0 U/mL, time 4.0 h) came to 13 g/L; at alcohol oxidase (enzyme 7.5 U/mL, time 2.0 h), 13 g/L; at alcohol oxidase (enzyme 7.5 U/mL, time 4.0 h) it was 19 g/L; at alcohol oxidase (enzyme 10 U/mL, time 2.0 h), 15 g/L; on alcohol oxidase (enzyme 10 U/mL, time 4.0 h, fed-batch addition of benzyl alcohol), 22 g/L; on alcohol oxidase (enzyme 15 U/mL, time 2.0 h) it was 17 g/L. Moreover, the “Cumulative benzaldehyde production Concn.” value at alcohol oxidase (enzyme 15 U/mL, time 4.0 h, fed-batch addition of benzyl alcohol) is recorded as 32 g/L; at alcohol oxidase (enzyme 15 U/mL, time 8.0 h, fed-batch addition of benzyl alcohol), 45 g/L. Moreover, the “Initial rate of benzaldehyde production” value is on record as 1.4 g/L h at alcohol oxidase (enzyme concentration 1.0 U/mL (0.06 g/L)); 3.4 g/L h on alcohol oxidase (enzyme concentration 2.5 U/mL (0.16 g/L)); 6.3 g/L h on alcohol oxidase (enzyme concentration 5.0 U/mL (0.31 g/L)); 8.6 g/L h on alcohol oxidase (enzyme concentration 7.5 U/mL (0.47 g/L)); 10.3 g/L h at alcohol oxidase (enzyme concentration 10 U/mL (0.63 g/L)); 11.7 g/L h at alcohol oxidase (enzyme concentration 15 U/mL (0.94 g/L)). The “Relative Reaction Rate” value stood at 0.03 at alcohol oxidase (reaction fluid Chloroform); 0.19 at alcohol oxidase (reaction fluid Ether); 0.04 at alcohol oxidase (reaction fluid Ethylacetate); 1.0 on alcohol oxidase (reaction fluid Hexane); 0.49 at alcohol oxidase (reaction fluid Toluene). The “Reaction Rate” value came out at 0.07 g/L h at alcohol oxidase (reaction fluid Chloroform); 0.39 g/L h at alcohol oxidase (reaction fluid Ether); 0.09 g/L h on alcohol oxidase (reaction fluid Ethylacetate); 2.08 g/L h at alcohol oxidase (reaction fluid Hexane); 1.01 g/L h on alcohol oxidase (reaction fluid Toluene). The “Substrate concentration up to which optimum reaction rates (85% of Vmax) could be maintained” value at alcohol oxidase (two phase system, hexane) is recorded as “up to 54 g/L”. For the same compound, the inhibition – broadly, the change of the read-out against control, counted positive when it falls – at 20000 µg/mL in data set [2] (Komagataella pastoris, read-out: Reduction of reaction rate by substrate inhibition) is roughly 60%. Moreover, the “Substrate concentration at which strong inhibition of the reaction is observed” value in data set [2] (whole cells in aqueous reaction fluid) is on record as “greater than 20 g/L”.

For the compound `OC1CCCCC1` [cyclohexanol], the “Oxidation by purified alcohol oxidase” value in data set [1] is listed as “unable to oxidize”.

For `CCCCCCCCCCO` [decanol], in data set [2], the “Oxidation by methanol-induced alcohol oxidase from P. pastoris” value (“Oxidation … from P. pastoris” for short) is reported as “unable to oxidize”.

With `CCCCCCCCCCCCO` [dodecanol], the “Substrate specificity of alkane-induced alcohol oxidase” value in data set [3] is given as “optimum activity”.

For the compound `CCCCCCCO` [heptanol], the “Oxidation … from P. pastoris” value in data set [2] is on record as “unable to oxidize”.

In the case of `CCCCCC=O` [hexanal], the Partition coefficient result in data set [4] is “greater than unity”.

On to `CCCCCCO` [hexanol], for which the Hexanal produced with P. pastoris (Chloroform) turned out to be 1.0 g/L; in the data set with P. pastoris (Ether) it was 2.7 g/L; with P. pastoris (Ethyl acetate) it was 2.4 g/L; with P. pastoris (Hexane), 8.7 g/L; with P. pastoris (Toluene), 2.4 g/L. In the data set on P. pastoris (water-hexane two-phase system), the “Hexanol concentration completely oxidized” value was “up to 10 g/L”. For the same compound, the “Aldehyde concentration, aqueous” value in data set [2] (alcohol 30 g/L, reaction time 12 h) was determined as 5.0 g/L. Further, the “Aldehyde concentration, 2-phase” value in data set [5] (reaction time 6 h) turned out to be 10.6 g/L; in data set [5] (reaction time 24 h), 12.4 g/L.

`CCCCCCCCCO` [nonanol]: the “Oxidation … from P. pastoris” value in data set [2] is reported as “unable to oxidize”.

On to `CCCCCCCCO` [octanol], for which the “Oxidation … from P. pastoris” value in data set [2] was “unable to oxidize”.

Regarding `CC(C)(C)O` [tert butanol], the “Oxidation by purified alcohol oxidase” value in data set [1] is “unable to oxidize”.

Take `CCCCCCCCCCCO` [undecanol]: the “Oxidation … from P. pastoris” value in data set [2] was “unable to oxidize”.

The record behind these values is patent US5010005A, “Bio-oxidation of high alcohols in non-aqueous reaction media” (priority 1989, dated 1991).
